Assay results from patent US5677282A (Proscript, Inc., priority 1995, dated 1997).

Tests used:
Format in all cases: biochemical
[1] = molecular target: stromelysin (Homo sapiens, UniProt P08254); assay: Assay of stromelysin inhibition activity (fluorogenic coumarin peptide substrate); conditions: trypsin-activated stromelysin 2 nM, H-150 buffer pH 7.4, room temperature; read-out: Ki(app)
Procedure: Stromelysin was first activated with trypsin. This was done by preparing a reaction mixture in H-150 (H-150 consists of 10 mM CaCl2, 150 mM NaCl and 100 mM HEPES at pH 7.4) containing a final concentration of 25 μg/mL trypsin and 2.2 μM of stromelysin (Marcy et al., Biochemistry,30:6476 (1991); Koklitis et al., Biochem. J., 376:217 (1991). The reaction was incubated for 30 minutes at 37° C. and then quenched by adding trypsin inhibitor agarose to the reaction mixture at a 20 fold excess with respect to trypsin.
The reaction mixture was centrifuged at 14,000 rpm (16,000 ×g) for 30 minutes using an Eppendorf Centrifuge 5415C. The supernant, which contains activated stromelysin, was concentrated with a Centricon 10 (5000 g, 1 hour). A sample was analyzed by Bradford total protein assay and 12% SDS polyacrylamide gel electrophoresis.
All steps of the stromelysin inhibition assay were performed at room temperature. Assay solutions were prepared for each inhibitor tested. Activated stromelysin was added to a stirred covelte to a final concentration of 2 nM in 2 mL of H-150 buffer. 4 μL 5 mM coumarin peptide substrate was dissolved in DMSO and the initial rate of hydrolysis was measured for 100-200 seconds.
Substrate hydrolysis was assessed by fluorescence using a slit width of 10:10, excitation at 328 nm and emission at 393 nm. Ki was calculated based on the assumption of simple competitive inhibition and a substrate concentration much less than Km. 2 μL of 10 mM inhibitor in DMSO was added and the reduction in hydrolysis rate measured. The addition of 2 μL of inhibitor was continued until a 30-70% inhibition was observed.

[2] = molecular target: human neutrophil collagenase (Homo sapiens, UniProt P22894); assay: Assay of human neutrophil collagenase inhibition activity; conditions: human neutrophil collagenase 2 nM, H-150 buffer pH 7.4; read-out: Ki(app)
Procedure: H-150 buffer, pH 7.4, was prepared by adding CaCl2 H2 O (1.47 grams), NaCl (8.77 grams) and N-[2-hydroxyethyl]piperazine-N'-[2-ethanesulfonic acid] (23.83 grams) to distilled and deionized water and then bringing the final volume of the solution to 1 liter.
A reaction mixture with a final volume of 2.0 mL was prepared from H-150 buffer, human neutrophil collagenase (Schnierer, et al., Blochem. Biophys. Res. Comm., 191:319 (1993); Knight et al., Federation of Europena Biochemical Societies 296:263 (1992)) (2 nM). Coumarin peptide substrate (4 μL of a 5 mM solution in dimethyl sulfoxide) was added to the reaction mixture. The rate of hydrolysis was determined for about 100-200 seconds by measuring the fluorescence of the reaction at ex328 nanometers and […] using a Hitachi F-2000 Fluorescence Spectrophotometer.
(§1) 2 μL of a 10 mM inhibitor stock solution (in dimethyl sulfoxide) is added and the reduction in the rate of hydrolysis is determined. Additional 2 μL aliquots of the stock inhibitor solution is added until a 30% to 70% inhibition is observed. Ki is calculated on the assumption of simple competitive inhibition and that the substrate concentration is much less than Km.

[3] = molecular target: T1, 72 kD gelatinase (Homo sapiens, UniProt P08253); assay: Assay of 72 KD gelatinase inhibition activity; conditions: 72KD gelatinase 180 pM, H-150 buffer pH 7.4; read-out: Ki(app)
T1 sequence (P08253 110-660): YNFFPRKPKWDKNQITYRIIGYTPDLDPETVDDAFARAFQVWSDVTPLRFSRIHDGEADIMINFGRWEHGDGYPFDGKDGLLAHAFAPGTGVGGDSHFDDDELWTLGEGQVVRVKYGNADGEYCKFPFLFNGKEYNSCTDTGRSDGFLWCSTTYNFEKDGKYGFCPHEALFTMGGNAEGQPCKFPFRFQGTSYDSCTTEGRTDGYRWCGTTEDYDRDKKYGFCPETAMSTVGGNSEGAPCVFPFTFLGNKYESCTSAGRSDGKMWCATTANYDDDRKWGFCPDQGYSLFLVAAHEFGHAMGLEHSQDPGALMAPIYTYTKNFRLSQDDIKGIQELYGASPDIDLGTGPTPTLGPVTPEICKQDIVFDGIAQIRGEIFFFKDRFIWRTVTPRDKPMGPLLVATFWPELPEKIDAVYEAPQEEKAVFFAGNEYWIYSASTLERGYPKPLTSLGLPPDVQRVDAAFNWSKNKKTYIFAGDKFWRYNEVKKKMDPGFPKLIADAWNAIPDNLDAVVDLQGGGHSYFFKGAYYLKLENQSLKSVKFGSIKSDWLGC
Procedure: H-150 buffer, pH 7.4, was prepared by CaCl2 H2O (1.47 grams), NaCl (8.77 grams) and N-[2 -hydroxyethyl]piperazine-N'-[2-ethanesulfonic acid](23.83 grams) to distilled and deionized water and then bring the final volume of the solution to 1 liter. An reaction mixture having a final volume of 250 μL was prepared with H-150 buffer, 40 μgrams of Pro-72KD gelatinase (Strongin, et al., J. Biol. Chem. 268:14033 (1993); Goldberg, et al., J. Biol. Chem., 267:4583 (1992); Kleiner, et al., Biochemistry 32:1583 (1993)) and p-aminophenyl mercuric acetate (Sigma Chemical Co., St. Louis, Mo.) (1 mM). The reaction mixture was then incubated for 3 hours at 25° C.
The reaction mixture was applied to a NAP-5 column (G-25 SEPHADEX™, Pharmacia). Fractions containing […] were identified using 12% SDS polyacrylamide gel electrphoresis and concentrated to about 100-200 μliters by centrifigation (5000 g, 15 minutes).
(§2) A solution containing H-150 buffer (2.0 mL), 72KD gelatinase (180 pM) and ethylphenolpoly(ethylene-glycolether)n (Boerhringer Mannheim) (1.3 μM) was prepared in a stirred cuvette. Coumarin peptide substrate (2 μL of a 1 mM solution in dimethyl sulfoxide) was added to the reaction mixture. The rate of hydrolysis was determined for about 100-200 seconds by measuring the fluorescence of the reaction at ex328 nanometers and […] using a Hitachi F-2000 Fluorescence Spectrophotometer.
as §1

[4] = molecular target: 92 kD gelatinase (Homo sapiens, UniProt P14780); assay: Assay of 92 KD gelatinase inhibition activity; conditions: 92KD gelatinase 25 pM, H-150 buffer pH 7.4; read-out: Ki(app)
Procedure: H-150 buffer, pH 7.4, was prepared by CaCl2 H2 O (1.47 grams), NaCl (8.77 grams) and N-[2-hydroxyethyl]piperazine-N'-[2-ethanesulfonic acid](23.83 grams) to distilled and deionized water and then bring the final volume of the solution to 1 liter. A reaction mixture having a final volume of 500 μL was prepared with H-150 buffer, 200 μgrams of Pro-92KD gelatinase (Strongin et al., J. Biol. Chem., 268:14033 (1993); Goldberg, et al., J. Biol. Chem., 267:4583 (1992); Okada et al., J. Biol. Chem. 267:21712 (1992)), p-aminophenyl mercuric acetate (Sigma Chemical Co., St. Louis, Mo.) (1 mM) and Brij (dodexylpoly(oxyethyleneglycolether))(0,008% w/v). The reaction mixture wsa then incubated for 24 hours at 37° C.
The reaction mixture was applied to a NAP-5 column (G-25 SEPHADEX™, Pharmacia). Fractions containing 72KD gelatinase were identified using 12% polyacrylamide gel electrophoresis and concentrated to about 100-200 μliters by centrifigation (5000 g, 1 hour).
as §2, with “mL), 92KD” for “mL), 72KD”, “gelatinase (25” for “gelatinase (180”, “Mannheim) (4.0” for “Mannheim) (1.3”, “substrate (4” for “substrate (2”, “a 5” for “a 1”
as §1

Sequence of stromelysin (P08254 100-477): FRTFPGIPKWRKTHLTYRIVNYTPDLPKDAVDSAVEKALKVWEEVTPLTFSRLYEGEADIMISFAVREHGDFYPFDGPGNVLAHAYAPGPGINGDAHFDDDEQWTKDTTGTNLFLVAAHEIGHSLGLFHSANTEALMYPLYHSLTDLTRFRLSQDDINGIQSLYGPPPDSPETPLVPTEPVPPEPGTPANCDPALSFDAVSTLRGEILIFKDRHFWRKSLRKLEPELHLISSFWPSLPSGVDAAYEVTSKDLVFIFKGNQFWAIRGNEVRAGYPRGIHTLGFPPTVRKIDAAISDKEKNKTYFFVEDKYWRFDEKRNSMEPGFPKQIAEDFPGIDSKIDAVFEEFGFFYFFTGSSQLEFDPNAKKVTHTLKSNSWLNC
Sequence of human neutrophil collagenase (P22894 101-467): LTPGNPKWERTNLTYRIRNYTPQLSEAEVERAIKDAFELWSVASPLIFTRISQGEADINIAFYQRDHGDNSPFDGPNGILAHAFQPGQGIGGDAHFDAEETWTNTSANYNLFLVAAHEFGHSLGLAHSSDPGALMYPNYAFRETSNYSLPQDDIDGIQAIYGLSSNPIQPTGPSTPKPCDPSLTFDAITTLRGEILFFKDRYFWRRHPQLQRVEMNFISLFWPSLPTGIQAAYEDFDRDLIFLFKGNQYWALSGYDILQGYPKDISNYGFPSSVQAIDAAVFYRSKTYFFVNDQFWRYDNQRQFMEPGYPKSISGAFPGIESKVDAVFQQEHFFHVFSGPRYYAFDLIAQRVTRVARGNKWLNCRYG
Sequence of 92 kD gelatinase (P14780 107-707): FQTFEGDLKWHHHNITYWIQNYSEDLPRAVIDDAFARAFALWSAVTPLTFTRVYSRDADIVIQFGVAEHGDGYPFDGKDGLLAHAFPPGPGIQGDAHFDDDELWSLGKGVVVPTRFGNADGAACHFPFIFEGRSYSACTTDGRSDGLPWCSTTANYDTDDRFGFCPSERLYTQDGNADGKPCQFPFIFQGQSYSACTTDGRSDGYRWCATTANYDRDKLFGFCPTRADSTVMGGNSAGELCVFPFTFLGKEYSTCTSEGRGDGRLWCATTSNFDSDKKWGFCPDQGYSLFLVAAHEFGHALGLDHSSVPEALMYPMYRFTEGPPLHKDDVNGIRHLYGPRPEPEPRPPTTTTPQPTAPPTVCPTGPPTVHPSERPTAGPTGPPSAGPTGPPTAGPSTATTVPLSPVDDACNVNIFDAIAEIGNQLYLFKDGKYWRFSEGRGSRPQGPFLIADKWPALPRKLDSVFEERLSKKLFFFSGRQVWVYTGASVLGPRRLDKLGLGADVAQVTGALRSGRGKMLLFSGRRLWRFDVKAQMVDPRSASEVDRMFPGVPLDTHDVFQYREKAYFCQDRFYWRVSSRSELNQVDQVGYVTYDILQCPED

Ki [1] [nM] | Ki [2] [nM] | Ki [3] [nM] | Ki [4] [nM] | Compound
44 | 1.04 | 0.68 | 0.31 | CC(C)[C@H](NC(=O)[C@H](Cc1ccccc1)NC(=O)c1ccc(NS(=O)(=O)c2ccc(C(C)(C)C)cc2)cc1)C(=O)Nc1n[nH]c(=S)s1 [5-(N-(4-(4-t-Butylphenylsulfonylamino)benzoyl)-phenylalanyl-valylamino)-1,3,4-thiadiazole-2-thione]
82 | 2.6 | 0.8 | 0.31 | CC(C)[C@H](NC(=O)[C@H](Cc1ccccc1)NC(=O)c1ccc(-c2ccccc2)cc1)C(=O)Nc1n[nH]c(=S)s1 [5-(N-(4-phenylbenzoyl)phenylalanyl-valylamino)-1,3,4-thiadiazole-2-thione]
62 | 1.17 | 0.29 | 0.145 | CC(C)C(NC(=O)C(Cc1ccc(NC(=O)OCc2ccccc2)cc1)NC(=O)OCc1ccccc1)C(=O)Nc1n[nH]c(=S)s1 (centres unmarked) [5-(N-benzyloxycarbonyl-((p-benzyloxycarbonylamino)phenyl-alanyl)-valylamino)-1,3,4-thiadiazole-2-thione]
57 | 0.54 | 0.52 | 0.17 | O=C(CCC(NC(=O)OCc1ccccc1)C(=O)NC(C(=O)Nc1n[nH]c(=S)s1)c1ccccc1)NCCc1ccccc1 (centres unmarked) [5-(N-benzyloxycarbonyl-(γ-N-2-phenylethyl)glutamylphenylglycylamino)-1,3,4-thiadiazole-2-thione]
1120 | 7.8 | 1.7 | 3.6 | CSCC[C@H](NC(=O)[C@H](Cc1ccccc1)NC(=O)OCc1ccccc1)C(=O)Nc1n[nH]c(=S)s1 [5-(N-benzyloxycarbonyl-phenylalanyl-methionylamino)-1,3,4-thiadiazole-2-thione]
60 | 2.4 | 0.71 | 0.36 | CC(C)[C@H](NC(=O)[C@H](Cc1c[nH]c2ccccc12)NC(=O)[C@H](Cc1ccccc1)NC(=O)OCc1ccccc1)C(=O)Nc1n[nH]c(=S)s1 [5-(N-benzyloxycarbonyl-phenylalanyl-tryptonyl-valylamino)-1,3,4-thiadiazole-2-thione]

Compound | Ki [1] [nM] | Ki [2] [nM] | Ki [3] [nM] | Ki [4] [nM]
CC(C)C[C@H](NC(=O)[C@H](Cc1ccc(OCc2ccccc2)cc1)NC(=O)OCc1ccccc1)C(=O)Nc1n[nH]c(=S)s1 [5-(N-benzyloxycarbonyl-((O-benzyl)tyrosyl)-leucylamino)-1,3,4-thiadiazole-2-thione] | 96 | 1.83 | 0.24 | 0.29
CC(C)[C@H](NC(=O)[C@H](CSCc1ccccc1)NC(=O)OCc1ccccc1)C(=O)Nc1n[nH]c(=S)s1 [5-(N-benzyloxycarbonyl-((S-benzyl)cysteinyl)-valylamino)-1,3,4-thiadiazole-2-thione] | 202 | 3.2 | 1.1 | 2.1
CC(C)(C)OC(=O)N[C@@H](Cc1ccc(OCc2ccccc2)cc1)C(=O)NC(C(=O)Nc1n[nH]c(=S)s1)c1ccccc1 (some centres unmarked) [5-(N-t-Butoxycarbonyl-(O-benzyl)tyrosyl-phenylglycineamino)-1,3,4-thiadiazole-2-thione] |  | 0.99 | 0.51 | 0.245
